Source: ChEMBL document CHEMBL4184284, “MF-8, a novel promising arylpiperazine-hydantoin based 5-HT7 receptor antagonist: In vitro drug-likeness studies and in vivo pharmacological evaluation” (Bioorg Med Chem Lett, 2018)
The source made the active and inactive calls. No cut-off for these calls is given here.

What was measured:
[1] = Effective permeability of the compound at 200 uM after 5 hrs by PAMPA; assay type: ADME; settings: read-out: Peff
P-gp [2] = experiment: Activity at recombinant human Pgp expressed in cell membranes assessed as basal ATPase activity at 50 uM after 40 mins by P-gp Glo assay relative to control; assay type: ADME; settings: cell membranes expressing recombinant human P-gp, read-out: Activity
[3] = Intrinsic clearance in human liver microsomes at 50 uM preincubated for 5 mins followed by NADPH addition measured up to 45 mins; assay type: ADME, microsome; settings: read-out: CLH
[4] = Intrinsic clearance in mouse liver microsomes at 50 uM preincubated for 5 mins followed by NADPH addition measured up to 30 mins; assay type: ADME, microsome; settings: read-out: CLH
[5] = Intrinsic clearance in rat liver microsomes at 50 uM preincubated for 5 mins followed by NADPH addition measured up to 30 mins; assay type: ADME, microsome; settings: read-out: CLH
[6] = Drug metabolism in human liver microsomes at 50 uM preincubated for 5 mins followed by NADPH addition measured after 30 mins by UPLC-MS analysis; assay type: ADME, microsome; settings: 0.5 h
[7] = Drug metabolism in rat liver microsomes at 50 uM preincubated for 5 mins followed by NADPH addition measured after 30 mins by UPLC-MS analysis; assay type: ADME, microsome; settings: 0.5 h
[8] = Drug metabolism in mouse liver microsomes at 50 uM preincubated for 5 mins followed by NADPH addition measured after 30 mins by UPLC-MS analysis; assay type: ADME, microsome; settings: 0.5 h
CYP2D6 = CYP2D6 (Homo sapiens, UniProt P10635); experiment: Inhibition of CYP2D6 (unknown origin) assessed as residual activity at 25 uM using luciferin-ME EGE as substrate by CYP450-Glo assay; assay type: ADME; settings: CYP2D6 enzyme (unknown origin), probe luciferin-ME EGE, read-out: Activity
Chain of CYP2D6 (P10635 whole entry): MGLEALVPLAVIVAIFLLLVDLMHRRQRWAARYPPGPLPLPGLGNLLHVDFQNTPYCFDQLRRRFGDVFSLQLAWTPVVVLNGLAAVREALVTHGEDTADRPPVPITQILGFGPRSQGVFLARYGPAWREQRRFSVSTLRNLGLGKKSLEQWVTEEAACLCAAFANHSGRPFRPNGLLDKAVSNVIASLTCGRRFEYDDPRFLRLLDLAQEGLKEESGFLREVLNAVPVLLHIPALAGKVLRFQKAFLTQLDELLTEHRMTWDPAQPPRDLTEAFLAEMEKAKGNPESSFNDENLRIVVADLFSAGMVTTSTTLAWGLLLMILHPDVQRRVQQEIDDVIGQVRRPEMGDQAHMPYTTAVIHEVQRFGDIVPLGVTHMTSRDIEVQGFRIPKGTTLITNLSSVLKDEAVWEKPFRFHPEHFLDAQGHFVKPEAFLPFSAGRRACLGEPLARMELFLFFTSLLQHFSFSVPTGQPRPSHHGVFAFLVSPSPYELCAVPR

Cytochrome P450 2D6 = Cytochrome P450 2D6 (Homo sapiens, UniProt P10635); experiment: Inhibition of CYP2D6 (unknown origin) at 0.025 to 25 uM using luciferin-ME EGE as substrate by CYP450-Glo assay; assay type: ADME
Chain of Cytochrome P450 2D6 (P10635 whole entry): as above

[9] = Cytotoxicity against HEK293 cells assessed as cell viability at 100 uM after 48 hrs by EZ4U labeling based assay relative to control; settings: human, read-out: Activity
[10] = Cytotoxicity against human HepG2 cells assessed as ATP level at 100 uM after 120 mins by bioluminescence-based assay relative to control; assay type: cell-based; settings: read-out: Activity
HEK293 [11] = experiment: Cytotoxicity against HEK293 cells assessed as reduction in cell viability at 250 uM after 48 hrs by EZ4U labeling based assay; settings: human, hek293, 48 h
HepG2 [12] = experiment: Cytotoxicity against human HepG2 cells assessed as reduction in ATP level at 1 to 100 uM after 120 mins by bioluminescence-based assay; assay type: cell-based; settings: hepg2, 2 h
Salmonella typhimurium = experiment: Mutagenicity in Salmonella typhimurium TA100 assessed as revertant colonies at 1 to 10 uM by Ames test; assay type: toxicity, organism-based; settings: salmonella enterica subsp. enterica serovar typhimurium
Mus musculus [13] = experiment: Antidepressant-like activity in Swiss albino mouse assessed as decrease in immobility time at 5 mg/kg, ip administered 60 mins prior to test measured for last 4 mins of 6 mins observation by forced swim test; assay type: functional; parameters: scale not given: the % may be the effect or the level left
Mus musculus [14] = experiment: Antidepressant-like activity in Swiss albino mouse assessed as decrease in immobility time at 1.25 to 2.5 mg/kg, ip administered 60 mins prior to test measured for last 4 mins of 6 mins observation by forced swim test; assay type: functional, organism-based
Rattus norvegicus [15] = experiment: Antidepressant-like activity in Wistar rat assessed as decrease in immobility time at 5 mg/kg, ip administered 60 mins prior to test measured for 5 mins by forced swim test; assay type: functional; parameters: scale not given: the % may be the effect or the level left
Rattus norvegicus [16] = experiment: Antidepressant-like activity in Wistar rat assessed as decrease in immobility time at 10 mg/kg, ip administered 60 mins prior to test measured for 5 mins by forced swim test; assay type: functional; parameters: scale not given: the % may be the effect or the level left
Mus musculus [17] = experiment: Anxiolytic-like activity in Swiss albino mouse assessed as increase in number of punished crossings at 10 mg/kg, ip administered for 60 mins measured for 1 min post 3 sec electric shock by four-plate test; assay type: functional
Mus musculus [18] = experiment: Anxiolytic-like activity in Swiss albino mouse assessed as increase in number of punished crossings at 2.5 to 5 mg/kg, ip administered for 60 mins measured for 1 min post 3 sec electric shock by four-plate test; assay type: functional, organism-based
Mus musculus [19] = experiment: Toxicity in Swiss albino mouse assessed as effect on spontaneous locomotor activity at 1.25 to 5 mg/kg, ip measured for 2 to 6 mins; assay type: organism-based; settings: in vivo
Rattus norvegicus [20] = experiment: Toxicity in Wistar rat assessed as effect on spontaneous locomotor activity at 2.5 to 10 mg/kg, ip measured for 5 mins by open field test; assay type: organism-based; settings: in vivo
Mus musculus [21] = experiment: Toxicity in Swiss albino mouse assessed as effect on spontaneous locomotor activity at 2.5 to 10 mg/kg, ip measured for 1 min; assay type: organism-based; settings: in vivo
Mus musculus [22] = experiment: Antidepressant-like activity in Swiss albino mouse assessed as decrease in immobility time at 10 to 20 mg/kg, ip administered 30 mins prior to test measured for last 4 mins of 6 mins observation by forced swim test; assay type: functional, organism-based
Rattus norvegicus [23] = experiment: Antidepressant-like activity in Wistar rat assessed as decrease in immobility time at 30 mg/kg, ip administered 30 mins prior to test measured for 5 mins by forced swim test; assay type: functional; parameters: scale not given: the % may be the effect or the level left
[24] = Drug level in human liver microsomes treated with aripiprazole at 50 uM preincubated for 5 mins followed by NADPH addition measured after 30 mins by UPLC-MS analysis; assay type: ADME, microsome; settings: 0.5 h
HepG2 [25] = experiment: Cytotoxicity against human HepG2 cells assessed as ATP level at 10 uM after 120 mins by bioluminescence-based assay relative to control; assay type: cell-based; settings: hepg2, 2 h
[26] = Activity at recombinant human Pgp expressed in cell membranes assessed as basal ATPase activity at 100 uM after 200 mins by P-gp Glo assay relative to control; assay type: ADME
[27] = Drug level in rat liver microsomes treated with aripiprazole at 50 uM preincubated for 5 mins followed by NADPH addition measured after 30 mins by UPLC-MS analysis; assay type: ADME, microsome; settings: 0.5 h
[28] = Drug level in mouse liver microsomes treated with aripiprazole at 50 uM preincubated for 5 mins followed by NADPH addition measured after 30 mins by UPLC-MS analysis; assay type: ADME, microsome; settings: 0.5 h
Mus musculus [29] = experiment: Anxiolytic-like activity in Swiss albino mouse assessed as increase in number of punished crossings at 1.25 to 5 mg/kg, ip administered for 60 mins measured for 1 min post 3 sec electric shock by four-plate test; assay type: functional, organism-based
[30] = Drug metabolism in human liver microsomes assessed as OPC-14857 formation at 50 uM preincubated for 5 mins followed by NADPH addition measured after 30 mins by UPLC-MS analysis; assay type: ADME, microsome; settings: 0.5 h
[31] = Drug metabolism in rat liver microsomes assessed as DM1451 formation at 50 uM preincubated for 5 mins followed by NADPH addition measured after 30 mins by UPLC-MS analysis; assay type: ADME, microsome; settings: 0.5 h
[32] = Drug metabolism in mouse liver microsomes assessed as DM1451 formation at 50 uM preincubated for 5 mins followed by NADPH addition measured after 30 mins by UPLC-MS analysis; assay type: ADME, microsome; settings: 0.5 h
[33] = Drug metabolism in mouse liver microsomes assessed as hydroxylated main metabolite formation at 50 uM preincubated for 5 mins followed by NADPH addition measured after 30 mins by UPLC-MS analysis; assay type: ADME, microsome; settings: 0.5 h
[34] = Drug level in human liver microsomes treated with MF-8 at 50 uM preincubated for 5 mins followed by NADPH addition measured after 30 mins by UPLC-MS analysis; assay type: ADME, microsome; settings: 0.5 h
[35] = Drug level in rat liver microsomes treated with MF-8 at 50 uM preincubated for 5 mins followed by NADPH addition measured after 30 mins by UPLC-MS analysis; assay type: ADME, microsome; settings: 0.5 h
[36] = Drug level in mouse liver microsomes treated with MF-8 at 50 uM preincubated for 5 mins followed by NADPH addition measured after 30 mins by UPLC-MS analysis; assay type: ADME, microsome; settings: 0.5 h
[37] = Retention time of the compound by UPLC-MS analysis; assay type: physicochemical
P-gp [38] = experiment: Activity at recombinant human Pgp expressed in cell membranes assessed as basal ATPase activity at 200 uM after 200 mins by P-gp Glo assay relative to control; assay type: ADME; settings: cell membranes expressing recombinant human P-gp, read-out: Activity
HEK293 [39] = experiment: Cytotoxicity against HEK293 cells assessed as reduction in cell viability at 1 uM after 48 hrs by EZ4U labeling based assay; settings: human, hek293, 48 h
Mus musculus [40] = experiment: Antidepressant-like activity in Swiss albino mouse assessed as decrease in immobility time at 10 mg/kg, ip administered 30 mins prior to test measured for last 4 mins of 6 mins observation by forced swim test; assay type: functional, organism-based
Rattus norvegicus [41] = experiment: Antidepressant-like activity in Wistar rat assessed as decrease in immobility time at 1.25 mg/kg, ip administered 30 mins prior to test measured for 5 mins by forced swim test; assay type: functional; parameters: scale not given: the % may be the effect or the level left
Rattus norvegicus [42] = experiment: Antidepressant-like activity in Wistar rat assessed as decrease in immobility time at 2.5 mg/kg, ip administered 30 mins prior to test measured for 5 mins by forced swim test; assay type: functional; parameters: scale not given: the % may be the effect or the level left
Mus musculus [43] = experiment: Anxiolytic-like activity in Swiss albino mouse assessed as increase in number of punished crossings at 1 mg/kg, ip administered for 30 mins measured for 1 min post 3 sec electric shock by four-plate test; assay type: functional, organism-based

COc1ccccc1N1CCN(CC(O)CN2C(=O)NC(C)(c3ccc(F)cc3)C2=O)CC1 (stereo not given)
Papp at 5 h, 200 µM [1]: 2.3 ×10⁻⁶ cm/s
activity at 40 min, 50 µM (P-gp [2]): 88.7%
CLint scaled at 50 µM [3]: 8.2 mL/min/kg
CLint scaled at 50 µM [4]: 17.2 mL/min/kg
CLint scaled at 50 µM [5]: 21.2 mL/min/kg
Drug metabolism [6]: Metabolite_Detected
Drug metabolism [7]: Metabolite_Detected
Drug metabolism [8]: Metabolite_Detected
activity at 25 µM (CYP2D6): 69.4%
inhibition (INH) (Cytochrome P450 2D6): Not Active
viability at 48 h, 100 µM [9]: 89.2%
viability at 2 h, 100 µM [10]: 90%
Activity (HEK293 [11]): Toxic
Activity (HepG2 [12]): Non-Toxic
Activity (Salmonella typhimurium): Non-Toxic
Activity (Mus musculus [13]): 36%
Activity (Mus musculus [14]): inactive
Activity (Rattus norvegicus [15]): 35%
Activity (Rattus norvegicus [16]): 26%
Activity (Mus musculus [17]): 30%
Activity (Mus musculus [18]): inactive
Activity (Mus musculus [19]): Non-Toxic
Activity (Rattus norvegicus [20]): Non-Toxic
Activity (Mus musculus [21]): Non-Toxic

CN(C)CCCN1c2ccccc2CCc2ccccc21 [IMIPRAMINE]
Activity (Mus musculus [22]): Active
Activity (Rattus norvegicus [23]): 30%

Cn1c(=O)c2c(ncn2C)n(C)c1=O [CAFFEINE]
Papp at 5 h, 200 µM [1]: 3.61 ×10⁻⁶ cm/s

O=c1ccc2ccc(OCCCCN3CCN(c4cccc(Cl)c4Cl)CC3)cc2[nH]1
Drug metabolism [24]: Metabolite_Detected

N#CC(C#N)=NNc1cccc(Cl)c1 [CARBONYL CYANIDE M-CHLOROPHENYLHYDRAZONE]
Activity (HepG2 [25]): 78%

SODIUM ORTHOVANAD
Activity [26]: 0%

CCn1cc(C(=O)O)c(=O)c2cc(F)c(N3CCNCC3)cc21 [NORFLOXACIN]
Papp at 5 h, 200 µM [1]: 0.95 ×10⁻⁶ cm/s

O=C1CCc2ccc(OCCCCN3CCN(c4ccc(O)c(Cl)c4Cl)CC3)cc2N1
Drug metabolism [27]: Metabolite_Detected
Drug metabolism [28]: Metabolite_Detected

CN1C(=O)CN=C(c2ccccc2)c2cc(Cl)ccc21
Activity (Mus musculus [29]): Active

O=C1CCc2ccc(OCCCCN3CCN(c4cccc(Cl)c4Cl)CC3)cc2N1 [ARIPIPRAZOLE]
CLint scaled at 50 µM [4]: 12.5 mL/min/kg
CLint scaled at 50 µM [5]: 7.02 mL/min/kg
Drug metabolism [30]: Metabolite_Detected
Drug metabolism [31]: Metabolite_Detected
Drug metabolism [32]: Metabolite_Detected
Drug metabolism [33]: Metabolite_Detected

COc1cc(O)ccc1N1CCN(CC(O)CN2C(=O)NC(C)(c3ccc(F)cc3)C2=O)CC1 (stereo not given)
Drug metabolism [34]: Metabolite_Detected
Drug metabolism [35]: Metabolite_Detected
Drug metabolism [36]: Metabolite_Detected
Retention_time [37]: 3.4 min

COc1ccc(CCN(C)CCCC(C#N)(c2ccc(OC)c(OC)c2)C(C)C)cc1OC (stereo not given)
activity at 200 min, 200 µM (P-gp [38]): > 160%

COc1cccc2c1C(=O)c1c(O)c3c(c(O)c1C2=O)C[C@@](O)(C(=O)CO)C[C@@H]3O[C@H]1C[C@H](N)[C@H](O)[C@H](C)O1 [DOXORUBICIN]
Activity (HEK293 [39]): Toxic

CC1CCN(CC[C@H]2CCCN2S(=O)(=O)c2cccc(O)c2)CC1
Activity (Mus musculus [40]): Active
Activity (Rattus norvegicus [41]): 30%
Activity (Rattus norvegicus [42]): 22%
Activity (Mus musculus [43]): Active
